Reference: ChEMBL document CHEMBL5543142, “Discovery of YFJ-36: Design, Synthesis, and Antibacterial Activities of Catechol-Conjugated β-Lactams against Gram-Negative Bacteria” (J Med Chem, 2024)

Key:
Escherichia coli [1] = test: Antibacterial activity against ESBL-producing multidrug-resistant Escherichia coli clinical isolate 14-1 assessed as inhibition of bacterial growth incubated for 18 to 20 hrs by two fold serial dilution assay; type: functional; details: time 18-20 hrs
Escherichia coli [2] = test: Antibacterial activity against ESBL-producing multidrug-resistant Escherichia coli clinical isolate 14-2 assessed as inhibition of bacterial growth incubated for 18 to 20 hrs by two fold serial dilution assay; type: functional; details: time 18-20 hrs
Escherichia coli [3] = test: Antibacterial activity against ESBL-producing multidrug-resistant Escherichia coli clinical isolate 14-4 assessed as inhibition of bacterial growth incubated for 18 to 20 hrs by two fold serial dilution assay; type: functional; details: time 18-20 hrs
Acinetobacter baumannii [4] = test: Antibacterial activity against OXA-23 producing multidrug-resistant Acinetobacter baumannii clinical isolate 15-1 assessed as inhibition of bacterial growth incubated for 18 to 20 hrs by two fold serial dilution assay; type: functional; details: time 18-20 hrs
Acinetobacter baumannii [5] = test: Antibacterial activity against OXA-23 producing multidrug-resistant Acinetobacter baumannii clinical isolate 15-2 assessed as inhibition of bacterial growth incubated for 18 to 20 hrs by two fold serial dilution assay; type: functional; details: time 18-20 hrs
Acinetobacter baumannii [6] = test: Antibacterial activity against OXA-23 producing multidrug-resistant Acinetobacter baumannii clinical isolate 15-3 assessed as inhibition of bacterial growth incubated for 18 to 20 hrs by two fold serial dilution assay; type: functional; details: time 18-20 hrs
Acinetobacter baumannii [7] = test: Antibacterial activity against OXA-23 producing multidrug-resistant Acinetobacter baumannii clinical isolate 15-4 assessed as inhibition of bacterial growth incubated for 18 to 20 hrs by two fold serial dilution assay; type: functional; details: time 18-20 hrs
Acinetobacter baumannii [8] = test: Antibacterial activity against OXA-23 producing multidrug-resistant Acinetobacter baumannii clinical isolate 15-5 assessed as inhibition of bacterial growth incubated for 18 to 20 hrs by two fold serial dilution assay; type: functional; details: time 18-20 hrs
Klebsiella pneumoniae [9] = test: Antibacterial activity against KPC-2 producing multidrug-resistant Klebsiella pneumoniae clinical isolate 15-1 assessed as inhibition of bacterial growth incubated for 18 to 20 hrs by two fold serial dilution assay; type: functional; details: time 18-20 hrs
Klebsiella pneumoniae [10] = test: Antibacterial activity against KPC-2 producing multidrug-resistant Klebsiella pneumoniae clinical isolate 15-2 assessed as inhibition of bacterial growth incubated for 18 to 20 hrs by two fold serial dilution assay; type: functional; details: time 18-20 hrs
Klebsiella pneumoniae [11] = test: Antibacterial activity against KPC-2 producing multidrug-resistant Klebsiella pneumoniae clinical isolate 15-5 assessed as inhibition of bacterial growth incubated for 18 to 20 hrs by two fold serial dilution assay; type: functional; details: time 18-20 hrs
Escherichia coli [12] = test: Antibacterial activity against Escherichia coli ATCC35218 assessed as inhibition of bacterial growth incubated for 18 to 20 hrs by two fold serial dilution assay; type: functional; details: time 18-20 hrs
Pseudomonas aeruginosa [13] = test: Antibacterial activity against IMP-4 producing multidrug-resistant Pseudomonas aeruginosa clinical isolate 17-13 assessed as inhibition of bacterial growth incubated for 18 to 20 hrs by two fold serial dilution assay; type: functional; details: time 18-20 hrs
Pseudomonas aeruginosa [14] = test: Antibacterial activity against IMP-4 producing multidrug-resistant Pseudomonas aeruginosa clinical isolate 19-17 assessed as inhibition of bacterial growth incubated for 18 to 20 hrs by two fold serial dilution assay; type: functional; details: time 18-20 hrs
Acinetobacter baumannii [15] = test: Antibacterial activity against OXA-23 producing multidrug-resistant Acinetobacter baumannii clinical isolate 17-2 assessed as inhibition of bacterial growth incubated for 18 to 20 hrs by two fold serial dilution assay; type: functional; details: time 18-20 hrs
Acinetobacter baumannii [16] = test: Antibacterial activity against OXA-23 producing multidrug-resistant Acinetobacter baumannii clinical isolate 17-3 assessed as inhibition of bacterial growth incubated for 18 to 20 hrs by two fold serial dilution assay; type: functional; details: time 18-20 hrs
Pseudomonas aeruginosa [17] = test: Antibacterial activity against IMP-4 producing multidrug-resistant Pseudomonas aeruginosa clinical isolate 19-5 assessed as inhibition of bacterial growth incubated for 18 to 20 hrs by two fold serial dilution assay; type: functional; details: time 18-20 hrs
Pseudomonas aeruginosa [18] = test: Antibacterial activity against IMP-4 producing multidrug-resistant Pseudomonas aeruginosa clinical isolate 19-1 assessed as inhibition of bacterial growth incubated for 18 to 20 hrs by two fold serial dilution assay; type: functional; details: time 18-20 hrs
Klebsiella pneumoniae [19] = test: Antibacterial activity against KPC-2 producing multidrug-resistant Klebsiella pneumoniae clinical isolate 15-3 assessed as inhibition of bacterial growth incubated for 18 to 20 hrs by two fold serial dilution assay; type: functional; details: time 18-20 hrs
[20] = AUC (0 to infinity) in ICR mouse at 20 mg/kg,iv administration measured upto 6 hrs by LC-MS/MS analysis; type: ADME, organism-based; details: in vivo
[21] = Clearance in ICR mouse at 20 mg/kg,iv administration measured upto 6 hrs by LC-MS/MS analysis; type: ADME, organism-based; details: in vivo
[22] = Half life in ICR mouse at 20 mg/kg,iv administration measured upto 6 hrs by LC-MS/MS analysis; type: ADME, organism-based; details: in vivo
[23] = MRT in ICR mouse at 20 mg/kg,iv administration measured upto 6 hrs by LC-MS/MS analysis; type: ADME, organism-based; details: in vivo
[24] = Volume of distribution at steady state in ICR mouse at 20 mg/kg,iv administration measured upto 6 hrs by LC-MS/MS analysis; type: ADME, organism-based; details: in vivo, read-out: Vdss
[25] = Plasma protein binding in mouse incubated for 35 mins by LC-MS/MS analysis; type: ADME, cell-free; details: read-out: PPB (converted)
Pseudomonas aeruginosa [26] = test: Antibacterial activity against IMP-4 producing multidrug-resistant Pseudomonas aeruginosa clinical isolate 17-1 assessed as inhibition of bacterial growth incubated for 18 to 20 hrs by two fold serial dilution assay; type: functional; details: time 18-20 hrs
Acinetobacter baumannii [27] = test: Antibacterial activity against OXA-23 producing multidrug-resistant Acinetobacter baumannii clinical isolate 17-5 assessed as inhibition of bacterial growth incubated for 18 to 20 hrs by two fold serial dilution assay; type: functional; details: time 18-20 hrs
Acinetobacter baumannii [28] = test: Antibacterial activity against OXA-23 producing multidrug-resistant Acinetobacter baumannii clinical isolate 17-6 assessed as inhibition of bacterial growth incubated for 18 to 20 hrs by two fold serial dilution assay; type: functional; details: time 18-20 hrs
Acinetobacter baumannii [29] = test: Antibacterial activity against OXA-23 producing multidrug-resistant Acinetobacter baumannii clinical isolate 17-7 assessed as inhibition of bacterial growth incubated for 18 to 20 hrs by two fold serial dilution assay; type: functional; details: time 18-20 hrs
Acinetobacter baumannii [30] = test: Antibacterial activity against OXA-23 producing multidrug-resistant Acinetobacter baumannii clinical isolate 17-8 assessed as inhibition of bacterial growth incubated for 18 to 20 hrs by two fold serial dilution assay; type: functional; details: time 18-20 hrs

Compound | MIC (Escherichia coli [1]) | MIC (Escherichia coli [2]) | MIC (Escherichia coli [3]) | MIC (Acinetobacter baumannii [4]) | MIC (Acinetobacter baumannii [5]) | MIC (Acinetobacter baumannii [6]) | MIC (Acinetobacter baumannii [7]) | MIC (Acinetobacter baumannii [8]) | MIC (Klebsiella pneumoniae [9]) | MIC (Klebsiella pneumoniae [10]) | MIC (Klebsiella pneumoniae [11]) | MIC (Escherichia coli [12]) | MIC (Pseudomonas aeruginosa [13]) | MIC (Pseudomonas aeruginosa [14]) | MIC (Acinetobacter baumannii [15]) | MIC (Acinetobacter baumannii [16]) | MIC (Pseudomonas aeruginosa [17]) | MIC (Pseudomonas aeruginosa [18]) | MIC (Klebsiella pneumoniae [19]) | MIC (Pseudomonas aeruginosa [26]) | also measured
Nc1nc(/C(=N/OC(C(=O)O)C2CCC(F)(F)CC2)C(=O)N[C@@H]2C(=O)N3C(C(=O)O)=C(CSCCNC(=O)c4ccc(O)c(O)c4Cl)CS[C@H]23)c(Br)s1.O=C(O)C(F)(F)F (stereo not given in full) | 0.125 µg/mL | 0.125 µg/mL | 0.06 µg/mL | 2 µg/mL | 0.5 µg/mL | 1 µg/mL | 4 µg/mL | 4 µg/mL | 0.5 µg/mL | 1 µg/mL | 0.25 µg/mL | 0.06 µg/mL | 0.06 µg/mL | 0.125 µg/mL | 0.125 µg/mL | 4 µg/mL | 0.25 µg/mL | 8 µg/mL | 0.5 µg/mL |  | AUC(0-inf) [20]: 3910 ng·h/mL; clearance [21]: 92.9 mL/min/kg; half-life [22]: 3.33 h; MRT [23]: 1.61 h; Vd [24]: 9.48 L/kg
Nc1nc(/C(=N/OC(C(=O)O)C2CCC(F)(F)CC2)C(=O)N[C@@H]2C(=O)N3C(C(=O)O)=C(CSCCNC(=O)c4ccc(O)c(O)c4Cl)CS[C@H]23)c(Cl)s1.O=C(O)C(F)(F)F (stereo not given in full) | 0.125 µg/mL | 0.25 µg/mL | 0.5 µg/mL | 4 µg/mL | 1 µg/mL | 4 µg/mL | 8 µg/mL | 4 µg/mL | 0.5 µg/mL | 1 µg/mL | 1 µg/mL | 0.125 µg/mL | 0.5 µg/mL | 0.125 µg/mL | 0.25 µg/mL | 2 µg/mL | 0.5 µg/mL | 8 µg/mL | 0.5 µg/mL |  | AUC(0-inf) [20]: 4740 ng·h/mL; clearance [21]: 54.1 mL/min/kg; half-life [22]: 0.34 h; MRT [23]: 0.18 h; Vd [24]: 0.649 L/kg; fraction unbound at 35 min [25]: 0.031
CC(C)[C@@H](O/N=C(\C(=O)N[C@@H]1C(=O)N2C(C(=O)O)=C(CSCCNC(=O)c3ccc(O)c(O)c3Cl)CS[C@H]12)c1csc(N)n1)C(=O)O.O=C(O)C(F)(F)F | 0.125 µg/mL | 1 µg/mL | 0.125 µg/mL |  |  |  |  |  | 0.25 µg/mL | 0.25 µg/mL | 0.25 µg/mL | 0.5 µg/mL | 0.06 µg/mL | 0.25 µg/mL | 1 µg/mL | 0.5 µg/mL | 2 µg/mL | 2 µg/mL | 2 µg/mL | 32 µg/mL | MIC (Acinetobacter baumannii [27]): 2 µg/mL; MIC (Acinetobacter baumannii [28]): 2 µg/mL; MIC (Acinetobacter baumannii [29]): 4 µg/mL; MIC (Acinetobacter baumannii [30]): 1 µg/mL
CC(C)(C)C1CCC(C(O/N=C(\C(=O)N[C@@H]2C(=O)N3C(C(=O)O)=C(CSCCNC(=O)c4ccc(O)c(O)c4Cl)CS[C@H]23)c2csc(N)n2)C(=O)O)CC1.O=C(O)C(F)(F)F (stereo not given in full) | 0.125 µg/mL | 0.5 µg/mL | 0.25 µg/mL | 8 µg/mL | 8 µg/mL | 8 µg/mL | 8 µg/mL | 8 µg/mL | 1 µg/mL | 1 µg/mL | 1 µg/mL | 0.06 µg/mL | 4 µg/mL | 0.5 µg/mL |  |  |  |  | 2 µg/mL | 4 µg/mL | AUC(0-inf) [20]: 6670 ng·h/mL; clearance [21]: 58 mL/min/kg; half-life [22]: 4.99 h; MRT [23]: 1.72 h; Vd [24]: 7.23 L/kg
Nc1nc(/C(=N/OC(C(=O)O)C2CCCCC2)C(=O)N[C@@H]2C(=O)N3C(C(=O)O)=C(CSCCNC(=O)c4ccc(O)c(O)c4Cl)CS[C@H]23)cs1.O=C(O)C(F)(F)F (stereo not given in full) | 0.125 µg/mL | 1 µg/mL | 0.125 µg/mL | 8 µg/mL | 4 µg/mL | 8 µg/mL | 8 µg/mL | 4 µg/mL | 4 µg/mL | 2 µg/mL | 1 µg/mL | 0.125 µg/mL | 1 µg/mL | 0.5 µg/mL |  |  |  |  | 2 µg/mL | 4 µg/mL | AUC(0-inf) [20]: 3440 ng·h/mL; clearance [21]: 90.1 mL/min/kg; half-life [22]: 0.7 h; MRT [23]: 0.3 h; Vd [24]: 1.73 L/kg
Nc1nc(/C(=N/OC(C(=O)O)C2CCC(C(F)(F)F)CC2)C(=O)N[C@@H]2C(=O)N3C(C(=O)O)=C(CSCCNC(=O)c4ccc(O)c(O)c4Cl)CS[C@H]23)cs1.O=C(O)C(F)(F)F (stereo not given in full) | 0.25 µg/mL | 1 µg/mL | 0.25 µg/mL | 4 µg/mL | 2 µg/mL | 4 µg/mL | 8 µg/mL | 2 µg/mL | 1 µg/mL | 1 µg/mL | 1 µg/mL | 0.06 µg/mL | 0.125 µg/mL | 0.5 µg/mL |  |  |  |  | 1 µg/mL | 1 µg/mL | fraction unbound at 35 min [25]: 0.04
C[C@](O/N=C(\C(=O)N[C@@H]1C(=O)N2C(C(=O)O)=C(CSCCNC(=O)c3ccc(O)c(O)c3Cl)CS[C@H]12)c1nc(N)sc1Cl)(C(=O)O)C(F)(F)F.O=C(O)C(F)(F)F | 0.06 µg/mL | 0.5 µg/mL | ≤ 0.03 µg/mL |  |  |  |  |  | 0.25 µg/mL | 0.5 µg/mL | 0.125 µg/mL | 0.125 µg/mL | 0.125 µg/mL | 0.06 µg/mL | 0.06 µg/mL | 0.5 µg/mL | 0.25 µg/mL | 1 µg/mL | 0.5 µg/mL | 8 µg/mL | MIC (Acinetobacter baumannii [27]): 0.125 µg/mL; MIC (Acinetobacter baumannii [28]): 0.5 µg/mL; MIC (Acinetobacter baumannii [29]): 0.5 µg/mL; MIC (Acinetobacter baumannii [30]): 0.125 µg/mL
CC(C)[C@H](O/N=C(\C(=O)N[C@@H]1C(=O)N2C(C(=O)O)=C(CSCCNC(=O)c3ccc(O)c(O)c3Cl)CS[C@H]12)c1csc(N)n1)C(=O)O.O=C(O)C(F)(F)F | 0.125 µg/mL | 1 µg/mL | 0.125 µg/mL |  |  |  |  |  | 1 µg/mL | 1 µg/mL | 4 µg/mL | 0.06 µg/mL | 0.125 µg/mL | 0.25 µg/mL | 4 µg/mL | 4 µg/mL | 0.5 µg/mL | 1 µg/mL | 4 µg/mL | 8 µg/mL | MIC (Acinetobacter baumannii [27]): 4 µg/mL; MIC (Acinetobacter baumannii [28]): 16 µg/mL; MIC (Acinetobacter baumannii [29]): 8 µg/mL; MIC (Acinetobacter baumannii [30]): 4 µg/mL
